Reference: PubChem BioAssay (NCI)
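Cultured in 96-well plates, cells were exposed to test compound for 48 hours across five concentrations. TGI denotes the concentration required for complete inhibition of growth.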

Legend:
Assay in all cases: NCI tumour cell line growth inhibition, 48 h
CCRF-CEM leukemia = test system: CCRF-CEM leukemia
SK-MEL-2 melanoma = test system: SK-MEL-2 melanoma
COLO 205 colon = test system: COLO 205 colon
M14 melanoma = test system: M14 melanoma
RXF 393 renal = test system: RXF 393 renal
K-562 leukemia = test system: K-562 leukemia
UACC-62 melanoma = test system: UACC-62 melanoma
SNB-75 CNS = test system: SNB-75 CNS
UACC-257 melanoma = test system: UACC-257 melanoma
HT29 colon = test system: HT29 colon
OVCAR-5 ovarian = test system: OVCAR-5 ovarian
HOP-18 NSCLC = test system: HOP-18 NSCLC
MALME-3M melanoma = test system: MALME-3M melanoma
SNB-78 CNS = test system: SNB-78 CNS
SNB-19 CNS = test system: SNB-19 CNS
DLD-1 colon = test system: DLD-1 colon
TK-10 renal = test system: TK-10 renal
SF-268 CNS = test system: SF-268 CNS
KM20L2 colon = test system: KM20L2 colon
SW-620 colon = test system: SW-620 colon
MOLT-4 leukemia = test system: MOLT-4 leukemia
RPMI-8226 leukemia = test system: RPMI-8226 leukemia
UO-31 renal = test system: UO-31 renal
NCI-H460 lung = test system: NCI-H460 lung
SN12C renal = test system: SN12C renal
SF-295 CNS = test system: SF-295 CNS
RXF-631 renal = test system: RXF-631 renal
SK-MEL-5 melanoma = test system: SK-MEL-5 melanoma
786-0 renal = test system: 786-0 renal
A498 renal = test system: A498 renal
HCC-2998 colon = test system: HCC-2998 colon
OVCAR-8 ovarian = test system: OVCAR-8 ovarian
U251 CNS = test system: U251 CNS
NCI-H226 lung = test system: NCI-H226 lung
NCI-H522 lung = test system: NCI-H522 lung
SF-539 CNS = test system: SF-539 CNS
A549 NSCLC = test system: A549 NSCLC
HCT-116 colon = test system: HCT-116 colon
HCT-15 colon = test system: HCT-15 colon
IGROV1 ovarian = test system: IGROV1 ovarian
HL-60(TB) leukemia = test system: HL-60(TB) leukemia
OVCAR-4 ovarian = test system: OVCAR-4 ovarian
EKVX NSCLC = test system: EKVX NSCLC
M19-MEL melanoma = test system: M19-MEL melanoma
KM12 colon = test system: KM12 colon
HOP-62 NSCLC = test system: HOP-62 NSCLC
SK-OV-3 ovarian = test system: SK-OV-3 ovarian
DMS 273 small cell lung = test system: DMS 273 small cell lung
CAKI-1 renal = test system: CAKI-1 renal
ACHN renal = test system: ACHN renal
OVCAR-3 ovarian = test system: OVCAR-3 ovarian
NCI-H23 lung = test system: NCI-H23 lung
SR leukemia = test system: SR leukemia
HOP-92 NSCLC = test system: HOP-92 NSCLC
LOX IMVI melanoma = test system: LOX IMVI melanoma
LXFL 529 NSCLC = test system: LXFL 529 NSCLC
DMS 114 small cell lung = test system: DMS 114 small cell lung
XF 498 CNS = test system: XF 498 CNS

## Cc1ccccc1C(=O)Oc1ccc(O)cc1
CCRF-CEM leukemia
  TGI: > 100000 nM
SK-MEL-2 melanoma
  TGI: > 100 µM
COLO 205 colon
  TGI: > 100 µM
M14 melanoma
  TGI: > 100 µM
RXF 393 renal
  TGI: > 100 µM
K-562 leukemia
  TGI: > 100 µM
UACC-62 melanoma
  TGI: > 100 µM
SNB-75 CNS
  TGI: > 100 µM
UACC-257 melanoma
  TGI: > 100 µM
HT29 colon
  TGI: > 100 µM
OVCAR-5 ovarian
  TGI: > 100 µM
HOP-18 NSCLC
  TGI: > 100 µM
MALME-3M melanoma
  TGI: > 100 µM
SNB-78 CNS
  TGI: > 100 µM
SNB-19 CNS
  TGI: > 100 µM
DLD-1 colon
  TGI: > 100 µM
TK-10 renal
  TGI: > 100 µM
SF-268 CNS
  TGI: > 100 µM
KM20L2 colon
  TGI: > 100 µM
SW-620 colon
  TGI: > 100 µM
MOLT-4 leukemia
  TGI: > 100 µM
RPMI-8226 leukemia
  TGI: > 100 µM
UO-31 renal
  TGI: > 100 µM
NCI-H460 lung
  TGI: > 100 µM
SN12C renal
  TGI: > 100 µM
SF-295 CNS
  TGI: > 100 µM
RXF-631 renal
  TGI: > 100 µM
SK-MEL-5 melanoma
  TGI: > 100 µM
786-0 renal
  TGI: > 100 µM
A498 renal
  TGI: > 100 µM
HCC-2998 colon
  TGI: > 100 µM
OVCAR-8 ovarian
  TGI: > 100 µM
U251 CNS
  TGI: > 100 µM
NCI-H226 lung
  TGI: > 100 µM
NCI-H522 lung
  TGI: > 100 µM
SF-539 CNS
  TGI: > 100 µM
A549 NSCLC
  TGI: > 100 µM
HCT-116 colon
  TGI: > 100 µM
HCT-15 colon
  TGI: > 100 µM
IGROV1 ovarian
  TGI: > 100 µM
HL-60(TB) leukemia
  TGI: > 100 µM
OVCAR-4 ovarian
  TGI: > 100 µM
EKVX NSCLC
  TGI: > 100 µM
M19-MEL melanoma
  TGI: > 100 µM
KM12 colon
  TGI: > 100 µM
HOP-62 NSCLC
  TGI: > 100 µM
SK-OV-3 ovarian
  TGI: > 100 µM
DMS 273 small cell lung
  TGI: > 100 µM
CAKI-1 renal
  TGI: > 100 µM
ACHN renal
  TGI: > 100 µM
OVCAR-3 ovarian
  TGI: > 100 µM
NCI-H23 lung
  TGI: > 100 µM

## O=C1C=CC2=[N+]([O-])C(c3ccccc3)(c3ccccc3)C(=Nc3ccccc3)C2=C1
CCRF-CEM leukemia
  TGI: 2180 nM
SK-MEL-2 melanoma
  TGI: 40.7 µM
M14 melanoma
  TGI: 3.76 µM
RXF 393 renal
  TGI: 3.04 µM
K-562 leukemia
  TGI: 4.34 µM
UACC-62 melanoma
  TGI: 4.51 µM
SNB-75 CNS
  TGI: 8.74 µM
UACC-257 melanoma
  TGI: 4.11 µM
HT29 colon
  TGI: 5.63 µM
OVCAR-5 ovarian
  TGI: 30 µM
HOP-18 NSCLC
  TGI: 7.52 µM
MALME-3M melanoma
  TGI: 4.2 µM
SNB-78 CNS
  TGI: 15.6 µM
SNB-19 CNS
  TGI: 31.6 µM
DLD-1 colon
  TGI: 3.14 µM
TK-10 renal
  TGI: 3.27 µM
SF-268 CNS
  TGI: 11.4 µM
KM20L2 colon
  TGI: 5.22 µM
SW-620 colon
  TGI: 3.65 µM
RPMI-8226 leukemia
  TGI: 7.83 µM
UO-31 renal
  TGI: 5.33 µM
NCI-H460 lung
  TGI: 34.4 µM
SN12C renal
  TGI: 3.96 µM
SF-295 CNS
  TGI: 27.7 µM
RXF-631 renal
  TGI: 11.1 µM
SR leukemia
  TGI: 763 nM
SK-MEL-5 melanoma
  TGI: 27.2 µM
HCC-2998 colon
  TGI: 19.6 µM
HOP-92 NSCLC
  TGI: 3.48 µM
OVCAR-8 ovarian
  TGI: 3.39 µM
U251 CNS
  TGI: 7.32 µM
LOX IMVI melanoma
  TGI: 3.74 µM
NCI-H226 lung
  TGI: 22.3 µM
NCI-H522 lung
  TGI: 3.02 µM
LXFL 529 NSCLC
  TGI: 3.36 µM
SF-539 CNS
  TGI: 19.5 µM
DMS 114 small cell lung
  TGI: 3.32 µM
A549 NSCLC
  TGI: 29.4 µM
HCT-116 colon
  TGI: 3.92 µM
HCT-15 colon
  TGI: 6.34 µM
IGROV1 ovarian
  TGI: 3.45 µM
XF 498 CNS
  TGI: 2710 nM
OVCAR-4 ovarian
  TGI: 3.28 µM
EKVX NSCLC
  TGI: 14.1 µM
M19-MEL melanoma
  TGI: 3.36 µM
HOP-62 NSCLC
  TGI: 29.3 µM
SK-OV-3 ovarian
  TGI: 31.8 µM
CAKI-1 renal
  TGI: 6.33 µM
ACHN renal
  TGI: 3.36 µM
OVCAR-3 ovarian
  TGI: 3.37 µM
NCI-H23 lung
  TGI: 5.64 µM
